The test system of assay [1] is C57BL/6J mice. Kind of assay: two-day water maze, scopolamine induced memory impairment. Conditions: scopolamine 1 mg/kg i.p.; J147 200 ppm, donepezil 20 ppm in food for two weeks. Format: in vivo. The procedure: (§1) A total of 60 male mice aged eight weeks were housed 4 per cage and were divided into five groups with 12 mice per group. Treatments were administered in the food (TestDiet® 5015, Richmond, IN, USA) for a period of two weeks before commencement of behavioral testing. […] Following two weeks of treatment, memory impairment was induced by intraperitoneal (i.p.) injection of scopolamine (1 mg/kg) 30 minutes prior to each of the following behavioral tests: Y-maze, probe trial of the water maze and contextual and cued fear conditioning. Mice were allowed to rest for two days between each behavior test. All mice received scopolamine except for one of the control groups, which received saline as a control. Mice were sacrificed 24 hours after the last behavioral test for tissue harvesting.
Spatial memory was determined using the two-day water maze in 23-month-old huAPPswe/PS1 transgenic mice fed J147 at 200 ppm in food for the previous three months. The protocol was adapted from a publication by Gulinello and colleagues. Water temperature remained at 27°C throughout the experiment. […] The time it took each mouse to find the hidden platform was measured as escape latency. […] All trials were recorded using the EthoVision Software and statistics were computed using GraphPad Instat software (GraphPad Software, San Diego, CA, USA).

The test system of assay [2] is C57BL/6J mice. The assay is described as follows: fear conditioning, scopolamine induced memory impairment. The assay is classed as in vivo. Conditions: scopolamine 1 mg/kg i.p.; J147 200 ppm, donepezil 20 ppm in food; vs scopolamine. The procedure:
as §1
Fear conditioning to either a cue or a context represents a form of associative learning. The read-out that is measured in contextual and cued fear conditioning is a freezing response that occurs following the pairing of an unconditioned stimulus (US), such as a foot shock, with a conditioned stimulus (CS), such as a particular context or cue (tone). The mouse will freeze if it remembers and associates that environment with the aversive stimulus. The hippocampus and the amygdala are required for fear memory where the hippocampus is involved in the formation and retrieval of context fear associations and the amygdala is involved in conditioning and recall of associations to contextual and discrete cues. This assay used fear conditioning chambers from Med Associates Inc. with Video Freeze Software (Med Associates Inc, St. Albans, VT, USA). On Day 1, mice were trained by allowing them to explore the chamber for 120 sec, mice were then presented with a 30-sec tone (2 kHz with 85 dB intensity) immediately followed by a 2-sec foot shock (0.7 mA). The tone-shock pairing was repeated following a 30-sec interval and the mice were again allowed to explore for 120 sec before removing them from the chamber. On Day 2, contextual memory, which requires a functioning hippocampus, was tested by placing the mice in the chambers and allowing them to explore for the same length of time as the previous day but without the tone and the shock. On Day 3, cued or emotional memory was tested, which relies on both hippocampus and amygdala. […] On Day 2, the time spent freezing is measured over the entire time in the chamber. […] The percentage of time spent freezing by each mouse is averaged per group and then groups can be compared and P-values calculated to determine statistical significance. On Day 3, the percentage of time spent freezing during the two tones is averaged per group, and then groups can be compared and P-values calculated to determine statistical significance. […]

Assay [3] relates to C57BL/6J mice. Kind of assay: Y-maze, scopolamine induced memory impairment. Conditions: scopolamine 1 mg/kg i.p.; J147 200 ppm, donepezil 20 ppm in food for two weeks. The assay is classed as in vivo. As for the experimental part:
as §1
Spontaneous alternation, the tendency to alternate free choices in a Y-maze (three arms), is a model for studying short term working memory in mice. Mice were injected with 1 mg/kg of scopolamine or saline 30 minutes prior to testing. Then each mouse was placed in the center of the Y and arm entries were recorded by video camera and the order of entries were recorded for the first 15 entries. Spontaneous alternations are defined as consecutive triplets of different arm choices.

Assay [4] has as its system BDNF. More on the design: method as in PMID 21343524. Conditions: rat traumatic brain injury models; cited from earlier work.

Consider `COc1cc2c(cc1OC)C(=O)C(CC1CCN(Cc3ccccc3)CC1)C2` (centres unmarked) [donepezil, reference compound], for which the “spatial memory (time to find hidden platform)” value in assay [1] is “failed to rescue the deficit”. For the same molecule, in assay [2], the “contextual memory (freezing Day 2)” value is “did not improve memory” and the “cued memory (freezing in response to the tone, Day 3)” value is on record as “neither effect was significant”. Moreover, the “short-term working memory (spontaneous alternations, Y maze)” value in assay [3] is recorded as “improve short-term working memory”.

`COc1cc(/C=C/c2cc(/C=C/c3ccc(O)c(OC)c3)n(-c3ccccc3)n2)ccc1O` [CNB-001]: the BDNF levels entry in assay [4] is listed as “increases BDNF levels”.
